IC50 data for 13 molecules are collected here from BindingDB's records for doi:10.1016/j.bmcl.2005.08.106 (Astrazeneca, 2005).

This assay in a line: Inhibition of Src-transfected 3T3 cell proliferation.

On to `COc1ccc(Cl)c(Nc2ncnc3cc(OCCCN4CCOCC4)cc(OC4CCOCC4)c23)n1` [N-(3-chloro-6-methoxypyridin-2-yl)-7-(3-morpholinopropoxy)-5-(tetrahydro-2H-pyran-4-yloxy)quinazolin-4-amine], for which the midpoint of inhibition, the IC50, lay at 70 nM.

Consider `COc1ccc(Cl)c(Nc2ncnc3cc(OCCCN4CCOCC4)cc(OC(C)C)c23)n1` [N-(3-chloro-6-methoxypyridin-2-yl)-5-isopropoxy-7-(3-morpholinopropoxy)quinazolin-4-amine], for which the IC50 (usually the concentration at which inhibition is half-maximal) was 30 nM.

`COc1cnc(Cl)c(Nc2ncnc3cc(OCCN4CCN(C(C)=O)CC4)cc(OC(C)C)c23)n1` [1-(4-(2-(4-(3-chloro-6-methoxypyrazin-2-ylamino)-5-isopropoxyquinazolin-7-yloxy)ethyl)piperazin-1-yl)ethanone]: 70 nM corresponded to half-maximal inhibition (IC50).

`COc1ccc(Cl)c(Nc2ncnc3cc(OCCN4CCN(C(C)=O)CC4)cc(OC(C)C)c23)n1` [1-(4-(2-(4-(3-chloro-6-methoxypyridin-2-ylamino)-5-isopropoxyquinazolin-7-yloxy)ethyl)piperazin-1-yl)ethanone] returned an IC50 of 60 nM.

Consider `COc1ccc(Cl)c(Nc2ncnc3cc(OCCCN4CCN(C)CC4)cc(OC(C)C)c23)n1` [N-(3-chloro-6-methoxypyridin-2-yl)-5-isopropoxy-7-(3-(4-methylpiperazin-1-yl)propoxy)quinazolin-4-amine], for which the IC50 turned out to be 60 nM.

`COc1cnc(Cl)c(Nc2ncnc3cc(OCCCN4CCOCC4)cc(OC4CCOCC4)c23)c1` [N-(2-chloro-5-methoxypyridin-3-yl)-7-(3-morpholinopropoxy)-5-(tetrahydro-2H-pyran-4-yloxy)quinazolin-4-amine] gave an IC50 of 140 nM.

`COc1ccc(Cl)c(Nc2ncnc3cc(OCCCN4CCOCC4)cc(OC(C)C)c23)c1` [N-(2-chloro-5-methoxyphenyl)-7-[3-(morpholin-4-yl)propoxy]-5-(propan-2-yloxy)quinazolin-4-amine]: it took 150 nM to reach half-maximal inhibition (IC50).

`COc1ccc(Cl)c(Nc2ncnc3cc(OCCN4CCCC4)cc(OC(C)C)c23)n1` [N-(3-chloro-6-methoxypyridin-2-yl)-5-isopropoxy-7-(2-(pyrrolidin-1-yl)ethoxy)quinazolin-4-amine]: the midpoint of inhibition, the IC50, lay at 120 nM.

Molecule `COc1ccc(Cl)c(Nc2ncnc3cc(OCCN4CCOCC4)cc(OC(C)C)c23)n1` [N-(3-chloro-6-methoxypyridin-2-yl)-5-isopropoxy-7-(2-morpholinoethoxy)quinazolin-4-amine] registered an IC50 of 120 nM.

In turn, `COc1ccc(Cl)c(Nc2ncnc3cc(OCCCN4CCN(C(C)=O)CC4)cc(OC(C)C)c23)n1` [1-(4-(3-(4-(3-chloro-6-methoxypyridin-2-ylamino)-5-isopropoxyquinazolin-7-yloxy)propyl)piperazin-1-yl)ethanone] had an IC50 of 20 nM.

`COc1cnc(Cl)c(Nc2ncnc3cc(OCCCN4CCOCC4)cc(OC(C)C)c23)c1` [N-(2-chloro-5-methoxypyridin-3-yl)-5-isopropoxy-7-(3-morpholinopropoxy)quinazolin-4-amine] registered an IC50 of 150 nM.

As to `COc1ccc(Cl)c(Nc2ncnc3cc(OCCCN4CCCC4)cc(OC(C)C)c23)n1` [N-(3-chloro-6-methoxypyridin-2-yl)-5-isopropoxy-7-(3-(pyrrolidin-1-yl)propoxy)quinazolin-4-amine], the IC50 amounted to 70 nM.

Take `COc1cc(Nc2ncnc3cc(OCCCN4CCOCC4)cc(OC(C)C)c23)c(Cl)cn1` [N-(5-chloro-2-methoxypyridin-4-yl)-5-isopropoxy-7-(3-morpholinopropoxy)quinazolin-4-amine]: the IC50 was determined as 350 nM.
